For 66 molecules, IC50 results are on record in patent US11896592B2, “Certain triazolopyridines and triazolopyrazines, compositions thereof and methods of use therefor” (Hutchison Medipharma Limited, priority 2009, dated 2024).

As usually defined, the IC50 is the concentration needed to halve the response being measured.

The target in the assay is T1, Recombinant human Met (c-Met) (Homo sapiens, UniProt P08581).
T1 construct: purchased Invitrogen PV3143
The assay can be described thus: Inhibition of c-Met kinase activity using Transcreener FP assay. The format is biochemical. As to conditions: Poly E4Y substrate, 28° C. 45 min. How it is done: Compound dilution: dilute test articles to 5 folds of the testing concentration using 20% DMSO.
The mixture is kept on ice until use;
Prepare ATP standard curve stock as following:
3. Enzymatic reaction: in 96-well reaction plate
Add 5 μL of test article or 5 μL of 20% DMSO or 5 μL of 500 mM EDTA;
Add 10 μL of Enzyme/Substrate stock;
Add 10 μL of ATP Diluent to begin the enzyme reaction and mix on plate shaker;
Add 5 μL of 20% DMSO, 10 μL of assay buffer and 10 μL of ATP standard curve stock into standard curve wells;
Gently shake at 28° C. for 45 min.
4. Stop reaction and detect ADP
Prepare Detection Mix: According to the procedures described in the Assay kit, Alexa633 tracer, ADP antibody and stop & detect buffer were added into H2O and mixed thoroughly. Prepare Tracer Only control: According to the procedures described in the Assay kit, ADP Alexa633 tracer and stop & detect buffer were added to H2O and mixed throughly.
Prepare No Tracer control: According to the procedures described in the Assay kit, the stop & detect buffer was diluted with H2O;
Add 25 μL of detection mix, Tracer Only control and No Tracer control into corresponding wells, respectively;
The reaction plate was gently shaken at 28° C. for 1 h;
Florescence polarization (FP) was measured on TECAN F500. Excitation wavelength: 610 nm, Emission wavelength: 670 nm.
Compound well [ADP] represents the ADP concentration of the compound well. Positive control well [ADP] represents the ADP concentration of the 20% DMSO well. Conversion of mP value to ADP concentration is based on the formula which is determined by standard curve.
IC50: calculated using XL-Fit 2.0 software.

Setting [1] is: read-out: IC50, inhibition of c-Met kinase activity.

SMILES strings stand for the structures. Read-outs that look alike come from different tables or passages of the source.

T1 sequence (P08581 956-1390 limits assumed): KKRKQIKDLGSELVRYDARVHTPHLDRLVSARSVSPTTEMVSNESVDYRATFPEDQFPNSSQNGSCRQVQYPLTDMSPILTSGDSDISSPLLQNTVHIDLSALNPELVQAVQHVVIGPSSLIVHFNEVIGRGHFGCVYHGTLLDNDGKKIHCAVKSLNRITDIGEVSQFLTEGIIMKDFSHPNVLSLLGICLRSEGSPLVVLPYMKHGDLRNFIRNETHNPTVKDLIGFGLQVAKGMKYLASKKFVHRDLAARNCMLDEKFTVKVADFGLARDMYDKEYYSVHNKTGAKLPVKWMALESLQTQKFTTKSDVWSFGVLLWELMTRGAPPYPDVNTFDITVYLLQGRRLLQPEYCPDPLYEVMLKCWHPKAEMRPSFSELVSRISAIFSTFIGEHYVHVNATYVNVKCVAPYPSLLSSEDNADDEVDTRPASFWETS

On to `CC(c1cc2cnccc2s1)n1nnc2ncc(-c3cnn(CCO)c3)nc21` (stereo not drawn) [Compound 21], for which, under setting [1], the IC50 lay within 1 to 100 nM.
With `OCCn1cc(-c2ccc3nnn(Cc4ccc5ncccc5c4)c3n2)cn1` [Compound 61], the IC50 under setting [1] is 1 to 100 nM.
Take `OCCn1cc(-c2cnc3nnn(Cc4ccc5ncc(CO)n5c4)c3n2)cn1` [Compound 306]: the half-inhibitory concentration (IC50) under setting [1] lay in the range of 1 to 100 nM.
Take `COc1ccc(-c2cnc3nnn(Cc4ccc5nccn5c4)c3n2)cc1` [Compound 57]: under setting [1], the half-inhibitory concentration (IC50) fell in the range of 1 to 100 nM.
The same measure, in the same setting: the same measure for `COCCOc1ncccc1Nc1cnc2nnn(Cc3ccc4ncccc4c3)c2n1` [Compound 216]: 100 to 1000 nM; for `c1cnc2ccc(Cn3nnc4ccc(-c5ccc(N6CCOCC6)nc5)nc43)cc2c1` [Compound 63]: 1 to 100 nM; for `c1cnc2ccc(Cn3nnc4ccc(-n5ccnc5)nc43)cc2c1` [Compound 214]: 1 to 100 nM.
In the case of `FC(F)(F)Cn1cc(-c2cnc3nnn(Cc4cc5[nH]ncc5s4)c3n2)cn1` [Compound 42], under setting [1], the half-inhibitory concentration (IC50) was in the range of 1 to 100 nM.
The same measure, in the same setting: as for `Cn1cc(-c2ccc3nnn(Cc4cc5cnccc5s4)c3n2)cn1` [Compound 71], the figure is 100 to 1000 nM.
With `Cn1cc(-c2ccc3nnn(Cc4cc5cccnc5cc4F)c3n2)cn1` [Compound 127], the IC50 under setting [1] fell in the range of 1 to 100 nM.
On the same count and under the same terms, the same measure for `Brc1cnc2nnn(Cc3cc4[nH]ncc4s3)c2n1` [Compound 295]: 1 to 100 nM; for `OC1CCCC1n1cc(-c2ccc3nnn(Cc4ccc5ncccc5c4)c3n2)cn1` (stereo not drawn) [Compound 119]: 100 to 1000 nM.
On the same count and under the same terms, as for `OCCn1cc(-c2ccc3nnn(Cc4ccc5ncsc5c4)c3n2)cn1` [Compound 73], the figure is 100 to 1000 nM.
`Cn1cc(-c2cnc3nnn(Cc4ccc5ncc(CN6CCOCC6)n5c4)c3n2)cn1` [Compound 320]: the half-maximal inhibitory concentration (IC50) under setting [1] lay within 100 to 1000 nM.
Same read-out and setting: the same measure for `COC(=O)c1cnn2ccc(Cn3nnc4ncc(-c5cnn(CCO)c5)nc43)cc12` [Compound 304]: 1 to 100 nM.
With `O=Cc1cnn2ccc(Cn3nnc4ncc(-c5cnn(CCO)c5)nc43)cc12` [Compound 312, 5-((6-(1-(2-Hydroxyethyl)-1H-pyrazol-4-yl)-1H-[1,2,3]triazolo[4,5-b]pyrazin-1-yl)methyl)pyrazolo[1,5-a]pyridine-3-carbaldehyde], the half-maximal inhibitory concentration (IC50) under setting [1] was 1 to 100 nM.
The same measure, in the same setting: the same measure for `c1cnc2ccc(Cn3nnc4ncc(Nc5ccnc(N6CCOCC6)c5)nc43)cc2c1` [Compound 230]: 1 to 100 nM; for `c1cncc(Oc2cnc3nnn(Cc4ccc5ncccc5c4)c3n2)c1` [Compound 258]: 1 to 100 nM.
The same measure, in the same setting: the same measure for `Cn1cc(-c2ccc3nnn(C4(c5ccc6ncccc6c5)CC4)c3n2)cn1` [Compound 122]: 100 to 1000 nM.
For `C[C@@H](c1ccc2nccn2c1)n1nnc2ncc(-c3cnn(C)c3)nc21` [Compound 270], under “IC50, inhibition of c-Met kinase activity”, the IC50 lay in the range of 1 to 100 nM.
Turning to `COc1cccc(Nc2cnc3nnn(Cc4ccc5ncccc5c4)c3n2)n1` [Compound 197], under setting [1], the 50% inhibitory concentration (IC50) is 1 to 100 nM.
On the same count and under the same terms, as for `CCn1cc(-c2ccc3nnn(Cc4ccc5ncccc5c4)c3n2)cn1` [Compound 95], the figure is 1 to 100 nM; as for `COc1ccc(-c2ccc3nnn(Cc4ccc5ncccc5c4)c3n2)cn1` [Compound 70], 1 to 100 nM; as for `Clc1cccc(Nc2ccc3nnn(Cc4cc5cnccc5s4)c3n2)c1` [Compound 170], 100 to 1000 nM.
Regarding `CS(=O)(=O)Nc1cccc(-c2ccc3nnn(Cc4ccc5ncccc5c4)c3n2)c1` [Compound 85], the half-inhibitory concentration (IC50) under setting [1] lay within 1 to 100 nM.
Same read-out and setting: as for `COCCNc1ccncc1Nc1cnc2nnn(Cc3ccc4ncccc4c3)c2n1` [Compound 209], the figure is 100 to 1000 nM.
Same read-out and setting: the same measure for `CCCn1cc(-c2ccc3nnn(Cc4ccc5ncccc5c4)c3n2)cn1` [Compound 146]: 1 to 100 nM; for `Cn1cc(-c2cnc3nnn(Cc4c[nH]c5ncccc45)c3n2)cn1` [Compound 1, 1-((1H-Pyrrolo[2,3-b]pyridin-3-yl)methyl)-6-(1-methyl-1H-pyrazol-4-yl)-1H-[1,2,3]-triazolo[4,5-b]pyrazine]: 1 to 100 nM.
For the molecule `COCCOc1ccc(-c2ccc3nnn(Cc4ccc5ncccc5c4)c3n2)cn1` [Compound 99], under setting [1], the IC50 fell in the range of 100 to 1000 nM.
Same read-out and setting: the same measure for `COCCOc1ccnc(Nc2cnc3nnn(Cc4ccc5ncccc5c4)c3n2)c1` [Compound 185]: 1 to 100 nM.
With `OCCn1cc(-c2ccc3nnn(Cc4c[nH]c5ncccc45)c3n2)cn1` [Compound 86], the IC50 under setting [1] lay within 1 to 100 nM.
Take `OCCn1cc(-c2cnc3nnn(Cc4ccn5ncnc5c4)c3n2)cn1` [Compound 317]: the IC50 under setting [1] lay in the range of 100 to 1000 nM.
Turning to `CCCn1cc(-c2ccc3nnn(Cc4ccc5nccn5c4)c3n2)cn1` [Compound 140], the IC50 under setting [1] was 1 to 100 nM.
The same measure, in the same setting: the same measure for `Cc1cc(Nc2ccc3nnn(Cc4ccc5ncccc5c4)c3n2)ccn1` [Compound 235]: 1 to 100 nM.
Consider `CCn1ncc2sc(Cn3nnc4ncc(-c5cnn(CCO)c5)nc43)cc21` [Compound 38], for which the IC50 under setting [1] fell in the range of 100 to 1000 nM.
`COCCOc1cccc(-c2ccc3nnn(Cc4ccc5ncccc5c4)c3n2)c1` [Compound 96]: the concentration for half-maximal inhibition (IC50) under setting [1] was in the range of 100 to 1000 nM.
On the same count and under the same terms, the same measure for `COc1ccc(Nc2ccc3nnn(Cc4ccc5ncccc5c4)c3n2)nc1` [Compound 234]: 100 to 1000 nM; for `FC(F)(F)Cn1cc(-c2cnc3nnn(Cc4ccc5nccn5n4)c3n2)cn1` [Compound 287]: 1 to 100 nM; for `CC(C)OCc1cnc2ccc(Cn3nnc4ncc(-c5cnn(C)c5)nc43)cn12` [Compound 323]: 1 to 100 nM.
The same measure, in the same setting: the same measure for `CS(=O)(=O)Nc1ccc(-c2ccc3nnn(Cc4ccc5ncccc5c4)c3n2)cn1` [Compound 90]: 1 to 100 nM; for `FC(F)(F)c1ccnc(Nc2cnc3nnn(Cc4ccc5ncccc5c4)c3n2)c1` [Compound 220]: 1 to 100 nM; for `Cn1cc(-c2ccc3nnn(Cc4ccc5ncsc5c4)c3n2)cn1` [Compound 72]: 1 to 100 nM.
Consider `COCc1cnc2ccc(Cn3nnc4ncc(-c5cnn(C)c5)nc43)cn12` [Compound 308], for which, under setting [1], the IC50 was 1 to 100 nM.
Regarding `Cn1cc(-c2ccc3nnn(Cc4cc5[nH]ncc5s4)c3n2)cn1` [Compound 132], the IC50 under setting [1] lay in the range of 1 to 100 nM.
`Brc1cnc2nnn(Cc3ccc4ncnn4c3)c2n1` [Compound 284]: the IC50 under setting [1] fell in the range of 100 to 1000 nM.
Still for that read-out and setting: the same measure for `c1csc(-c2ccc3nnn(Cc4ccc5ncccc5c4)c3n2)c1` [Compound 87]: 1 to 100 nM.
Regarding `c1cncc(Nc2ccc3nnn(Cc4ccc5ncccc5c4)c3n2)c1` [Compound 237], the IC50 under setting [1] was in the range of 1 to 100 nM.
The same measure, in the same setting: as for `c1cnc2ccc(Cn3nnc4ncc(Oc5ccncc5)nc43)cc2c1` [Compound 250], the figure is 1 to 100 nM; as for `c1cnc2ccc(Cn3nnc4ncc(Sc5ccncc5)nc43)cc2c1` [Compound 248], 1 to 100 nM.
As for `Cc1coc(Nc2cnc3nnn(Cc4ccc5ncccc5c4)c3n2)n1` [Compound 199], the concentration for half-maximal inhibition (IC50) under setting [1] was in the range of 1 to 100 nM.
As for `COCCOc1cc(-c2ccc3nnn(Cc4ccc5ncccc5c4)c3n2)ccn1` [Compound 107], the IC50 under setting [1] lay in the range of 100 to 1000 nM.
Same read-out and setting: the same measure for `Cc1cnc2ccc(Cn3nnc4ncc(-c5cnn(C)c5)nc43)cn12` [Compound 298]: 1 to 100 nM.
Same read-out and setting: the same measure for `O[C@@H]1CCC[C@H]1Nc1cc(Nc2cnc3nnn(Cc4ccc5ncccc5c4)c3n2)ccn1` [Compound 207]: 1 to 100 nM; for `Cn1cc(-c2cnc3nnn(Cc4ccc5ncc(C=O)n5c4)c3n2)cn1` [Compound 307, 6-((6-(1-Methyl-1H-pyrazol-4-yl)-1H-[1,2,3]triazolo[4,5-b]pyrazin-1-yl)methyl)-imidazo[1,2-a]pyridine-3-carbaldehyde]: 1 to 100 nM.
Take `c1cnc2[nH]cc(Cn3nnc4ccc(-c5cnn(C6CCNCC6)c5)nc43)c2c1` [Compound 116]: the IC50 under setting [1] was in the range of 100 to 1000 nM.
As for `CC(c1ccc2nccn2c1)n1nnc2ncc(-c3cn[nH]c3)nc21` (stereo not drawn) [Compound 328], the half-inhibitory concentration (IC50) under setting [1] was in the range of 1 to 100 nM.
Still for that read-out and setting: as for `OCCn1cc(-c2ccc3nnn(C4(c5ccc6ncccc6c5)CC4)c3n2)cn1` [Compound 123], the figure is 100 to 1000 nM.
Same read-out and setting: as for `CC(C)n1cc(-c2ccc3nnn(Cc4ccc5ncccc5c4)c3n2)cn1` [Compound 144], the figure is 1 to 100 nM.
On the same count and under the same terms, as for `Fc1ccc(-c2cnc3nnn(Cc4ccn5nccc5c4)c3n2)cc1` [Compound 303], the figure is 1 to 100 nM; as for `Cc1cc(Nc2cnc3nnn(Cc4ccc5ncccc5c4)c3n2)on1` [Compound 160], 1 to 100 nM; as for `CC(c1ccc2nccn2c1)n1nnc2ncc(-c3cnn(CC(F)(F)F)c3)nc21` (stereo not drawn) [Compound 277], 1 to 100 nM.
With `Cc1cc(Nc2cnc3nnn(Cc4ccc5ncccc5c4)c3n2)no1` [Compound 200], the half-inhibitory concentration (IC50) under setting [1] was 1 to 100 nM.
In the case of `O[C@@H]1CCC[C@H]1Nc1ccc2nnn(Cc3ccc4ncccc4c3)c2n1` [Compound 241], the IC50 under setting [1] is 100 to 1000 nM.
Regarding `Cc1cc(Nc2cnc3nnn(Cc4ccc5ncccc5c4)c3n2)n[nH]1` [Compound 191], the IC50 under setting [1] lay within 1 to 100 nM.
Regarding `Cc1cccc(Nc2ccc3nnn(Cc4ccc5ncccc5c4)c3n2)n1` [Compound 181], the IC50 under setting [1] lay in the range of 100 to 1000 nM.
For `CC(C)n1cc(-c2cnc3nnn(Cc4ccc5nccn5c4)c3n2)cn1` [Compound 34], the IC50 under setting [1] was in the range of 1 to 100 nM.
